From publication PMC5268383, “Inhibition of STAT3 by Anticancer Drug Bendamustine” (PLoS ONE, 2017)

Experiments:
STAT1 SH2 = target: T1, STAT1 SH2 (Homo sapiens, UniProt P42224); experiment: AlphaScreen SH2 binding assay, STAT1
T1 construct: Avi-tag (N); 6His-tag (N)
Protocol: AlphaScreen assays were performed in a final reaction volume of 25 μL of the assay buffer, containing 10 mM HEPES-NaOH (pH 7.4), 50 mM NaCl, 1 mM EDTA (pH 8.0), 0.1% NP-40, and 10 ng/mL BSA in a 96-well microtiter plate at 25°C. The labeled Phospho-Tyr (pTyr) peptide probe was 5-carboxyfluorescein (FITC)-GpYLPQTV for STAT3, FITC-GpYDKPHVL for STAT1, and FITC-PSpYVNVQN for Grb2. A DMSO solution of BENDA was incubated with 50 nM of each SH2-containing protein for 15 min, 50 nM of the corresponding FITC-pTyr peptide was added, and the mixture was incubated for 90 min. Streptavidin-coated donor beads and anti-FITC acceptor beads were added and incubated for 90 min before the signals were measured with an Envision Xcite plate reader (PerkinElmer Life Sciences, Waltham, MA, USA).

[1] = target: T2, cellular STAT3 in MDA-MB-468 cells (Homo sapiens, UniProt P40763); experiment: Pull-down assay using Bio-BENDA, anti-STAT3 immunoprecipitation; format: cell-based; settings: 50 μM Bio-BENDA plus excess free drug, 4 h
T2 construct: endogenous in cells; host or cells: MDA-MB-468
T2 sequence (P40763 2-770 limits assumed): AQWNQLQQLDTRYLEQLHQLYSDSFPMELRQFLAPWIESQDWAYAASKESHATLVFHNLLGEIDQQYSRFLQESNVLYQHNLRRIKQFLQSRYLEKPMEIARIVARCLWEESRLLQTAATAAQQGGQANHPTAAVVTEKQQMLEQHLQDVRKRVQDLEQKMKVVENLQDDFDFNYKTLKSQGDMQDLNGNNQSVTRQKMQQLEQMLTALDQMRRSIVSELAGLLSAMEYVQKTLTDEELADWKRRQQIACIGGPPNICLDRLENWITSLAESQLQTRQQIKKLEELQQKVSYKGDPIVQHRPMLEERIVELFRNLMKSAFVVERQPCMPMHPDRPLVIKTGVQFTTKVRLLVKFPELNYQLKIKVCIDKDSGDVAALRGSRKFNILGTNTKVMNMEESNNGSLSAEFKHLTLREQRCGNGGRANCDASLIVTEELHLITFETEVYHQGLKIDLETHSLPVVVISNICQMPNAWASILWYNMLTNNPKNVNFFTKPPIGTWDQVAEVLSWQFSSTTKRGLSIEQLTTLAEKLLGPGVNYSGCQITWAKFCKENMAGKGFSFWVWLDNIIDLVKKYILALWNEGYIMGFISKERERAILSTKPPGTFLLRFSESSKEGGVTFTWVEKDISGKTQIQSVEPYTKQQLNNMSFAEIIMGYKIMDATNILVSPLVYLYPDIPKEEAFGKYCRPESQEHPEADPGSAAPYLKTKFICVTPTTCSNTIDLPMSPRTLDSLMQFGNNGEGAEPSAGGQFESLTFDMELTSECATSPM
Protocol: MDA-MB-468 cells were treated with biotinylated BENDA (Bio-BENDA) in the presence or absence of an excess amount of free drugs for 4 h and then lysed in PhosphoSafe™ Extraction Reagent (Merck, Darmstadt, Germany). Lysate (200 μL) was precleared with a mixture of Protein G Plus/Protein A Agarose Suspension (EMD Millipore, Billerica, MA, USA) for 1 h at 4°C and protein A and G agarose were removed by centrifugation at 13,000 rpm for 10 min. The lysate (200 μL) was immunoprecipitated with STAT3 antibody (1 μL) overnight at 4°C on a shaker and the immunocomplex was captured by the addition of a Protein G Plus/Protein A Agarose Suspension (30 μL) slurry for 1 h at 4°C. Samples were washed five times with lysis buffer and then boiled four times in SDS-PAGE sample buffer and run on an SDS-PAGE gel. The protein was transferred to a nitrocellulose membrane. The membranes were blocked in 5% skim milk in TBS/0.1% Tween 20. They were then incubated with streptavidin-HRP diluted at 1:2000 in 1.5% skim milk in TBS (pH7.4)/0.1% Tween 20 overnight at 4°C. Immunoblots were developed by using a chemiluminescent substrate.

[2] = target: T3, STAT3-CFP / STAT3-YFP in HEK293 cells (Homo sapiens, UniProt P40763); experiment: FRET assay of STAT3 dimerization; format: cell-based; settings: HEK293, 10, 20 or 50 μM, pretreatment before 50 ng/mL IL-6 stimulation
T3 construct: expressed in transfected cells; host or cells: HEK293
T3 sequence (P40763 whole entry): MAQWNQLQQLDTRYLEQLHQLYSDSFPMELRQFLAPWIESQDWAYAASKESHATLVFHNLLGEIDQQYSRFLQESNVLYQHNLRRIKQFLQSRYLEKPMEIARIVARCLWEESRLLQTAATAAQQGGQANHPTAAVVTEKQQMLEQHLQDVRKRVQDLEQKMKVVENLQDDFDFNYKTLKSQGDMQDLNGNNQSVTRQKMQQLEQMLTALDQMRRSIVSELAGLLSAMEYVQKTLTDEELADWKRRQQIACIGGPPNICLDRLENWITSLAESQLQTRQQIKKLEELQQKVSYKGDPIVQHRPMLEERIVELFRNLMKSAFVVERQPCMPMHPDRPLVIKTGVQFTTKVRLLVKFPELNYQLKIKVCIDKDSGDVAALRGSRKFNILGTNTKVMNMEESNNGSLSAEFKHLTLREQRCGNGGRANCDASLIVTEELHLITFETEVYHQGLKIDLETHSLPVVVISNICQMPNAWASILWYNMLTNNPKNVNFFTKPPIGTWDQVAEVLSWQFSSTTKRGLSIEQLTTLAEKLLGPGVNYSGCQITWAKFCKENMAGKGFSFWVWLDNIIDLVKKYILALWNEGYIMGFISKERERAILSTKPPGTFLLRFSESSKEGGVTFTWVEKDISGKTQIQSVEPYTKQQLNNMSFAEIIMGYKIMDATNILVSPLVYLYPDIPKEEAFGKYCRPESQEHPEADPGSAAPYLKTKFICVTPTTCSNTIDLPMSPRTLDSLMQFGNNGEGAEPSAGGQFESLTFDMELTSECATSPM
Protocol: The expression vectors for the fusion proteins STAT3-CFP and STAT3-YFP were prepared by the addition of STAT3 cDNA to pAmCyan1-N1 and pZsyellow1-N1. The vector mixture (1:1) was transfected into HEK293 cells with Lipofectamine 2000. The cells were cultured with 2% FBS DMEM for 48 h in a 96-well microtiter plate, treated with 0, 10, 20, or 50 μM BENDA or HP2 in a final DMSO concentration of 0.2% for 24 h, and then stimulated with 50 ng/mL IL-6 for a further 1 h. Fluorescence signals were measured (SpectraMax M5SK). The signals measured by FRET (excitation/emission: 436/528 nm) were corrected for crosstalk signals from cyan (excitation/emission: 436/488 nm) and yellow (excitation/emission: 517/528 nm).

[3] = target: T4, nuclear STAT3 of MDA-MB-468 cells (Homo sapiens, UniProt P40763); experiment: STAT3 DNA binding assay (TransAM ELISA); format: cell-based; settings: MDA-MB-468, 24 h; BENDA 25, 50, 100 μM, HP2 100 μM
T4 construct: endogenous in cells; host or cells: MDA-MB-468
T4 sequence (P40763 2-770 limits assumed): as the sequence (P40763 2-770 limits assumed) above
Protocol: The DNA-binding activity of STAT3 was evaluated with a TransAM ELISA kit (Active Motif, Carlsbad, CA, USA). The assay and nuclear extract preparation were performed according to the manufacturer’s instructions. Heat-denatured nuclear extract was used as a negative control. The nuclear extract (20 μg) was added to each well of a 96-well microtiter plate coated with immobilized oligonucleotides containing the STAT3 consensus binding site and incubated at room temperature for 1 h. They were incubated with anti-STAT3 antibody for 1 h at room temperature, followed by HRP-conjugated antibody for 1 h at room temperature. The developing solution was added, the reaction was terminated by the addition of stop solution, and the absorbance was measured at 450 nm with a reference wavelength of 655 nm (SpectraMax M5SK, Molecular Devices, Sunnyvale, CA, USA).

[4] = target: T5, STAT3-DNA complex (c-myc promoter) in MDA-MB-468 cells (Homo sapiens, UniProt P40763); experiment: ChIP assay, c-myc promoter binding by STAT3; format: cell-based; settings: MDA-MB-468, 8 h; BENDA 25, 50, 100 μM, HP2 50, 100 μM
T5 construct: endogenous in cells; host or cells: MDA-MB-468
T5 sequence (P40763 2-770 limits assumed, one chain of several): as the sequence (P40763 2-770 limits assumed) above
Protocol: A ChIP assay was performed with an ExactaChIP Human/Mouse STAT3 ChIP kit (R&D Systems, Minneapolis, MN, USA). MDA-MB-468 cancer cells were fixed with 1% formaldehyde and treated with the lysis buffer. After sonication, anti-STAT3 antibody or normal mouse IgG was added to the extract, followed by precipitation with Protein G Plus/Protein A Agarose Suspension. The eluted DNA fraction was used for PCR with human c-myc primers.

[5] = tested on: c-myc mRNA in MDA-MB-468 cells; experiment: RT-PCR of c-myc mRNA; format: cell-based, human; settings: 8 h
[6] = tested on: STAT3-Y705 phosphorylation in MDA-MB-468 cells; experiment: Western blotting of STAT3-Y705 phosphorylation; format: cell-based, human; settings: MDA-MB-468, 50 or 100 μM, 24 h
Protocol: Cells were treated with PhosphoSafe Extraction Reagent. Total proteins (40 μg) were subjected to SDS-PAGE and then transferred onto a nitrocellulose membrane. Membranes were blocked in 5% skim milk in TBS/0.1% Tween 20, incubated with primary antibodies diluted at 1:1000 in 1.5% skim milk in TBS (pH 7.4)/0.1% Tween 20 overnight at 4°C, and then incubated with HRP-conjugated secondary antibodies diluted at 1:5000 in TBS (pH 7.4)/0.1% Tween 20 for 1 h at room temperature. Immunoblots were developed with a chemiluminescent substrate.

[7] = tested on: MDA-MB-468 cells (high P-STAT3); experiment: WST cell proliferation assay, MDA-MB-468; format: cell-based, human; settings: 0.1-100 μM, 48 h, WST-8
Protocol: Cells were plated in a 96-well tissue culture plate (1000 cells per well) and incubated for 48 h. After incubation, the cells were treated with vehicle, 0.1–100 μM BENDA, or HP2 for 48 h. Samples were assayed in triplicate. After incubation, WST-8 solution (10 μL; Dojindo Molecular Technologies, Rockville, MD, USA) was added to each well and incubated at 37°C for 4 h, and the absorbance was read at 450 nm.

T1 sequence (P42224 whole entry): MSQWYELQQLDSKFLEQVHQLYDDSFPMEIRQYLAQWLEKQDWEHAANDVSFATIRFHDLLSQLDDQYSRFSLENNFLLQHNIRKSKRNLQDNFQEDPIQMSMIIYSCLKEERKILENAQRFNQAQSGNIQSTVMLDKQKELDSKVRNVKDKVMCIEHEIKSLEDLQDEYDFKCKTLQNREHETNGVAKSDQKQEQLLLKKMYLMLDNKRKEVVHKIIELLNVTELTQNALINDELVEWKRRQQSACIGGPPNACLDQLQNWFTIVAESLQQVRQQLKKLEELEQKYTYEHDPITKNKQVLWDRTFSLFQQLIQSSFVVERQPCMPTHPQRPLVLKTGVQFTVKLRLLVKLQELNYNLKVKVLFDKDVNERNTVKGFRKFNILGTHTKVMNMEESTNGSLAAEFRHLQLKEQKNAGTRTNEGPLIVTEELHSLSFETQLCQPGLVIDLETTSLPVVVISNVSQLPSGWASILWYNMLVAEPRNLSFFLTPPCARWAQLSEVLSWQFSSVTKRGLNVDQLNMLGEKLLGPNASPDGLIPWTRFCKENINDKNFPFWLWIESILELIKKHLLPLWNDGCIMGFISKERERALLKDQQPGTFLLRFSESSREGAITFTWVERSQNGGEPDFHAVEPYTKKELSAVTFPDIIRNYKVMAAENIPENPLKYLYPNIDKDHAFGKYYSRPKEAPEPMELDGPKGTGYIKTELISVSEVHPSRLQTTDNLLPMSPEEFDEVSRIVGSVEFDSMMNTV

## Cn1c(CCCC(=O)O)nc2cc(N(CCCl)CCCl)ccc21 [BENDA, 4-{5-[bis(2-chloroethyl)amino]-1-methyl-2-benzimidazolyl} butyric acid]
STAT1 SH2
  IC50: 60 µM
[1]
  Competition of Bio-BENDA STAT3 band intensity by excess free drug: competitively reduced
[2]
  Effect on FRET signals (STAT3 dimerization): reduced the FRET signals
[3]
  Inhibition of STAT3 binding to oligonucleotides containing STAT3 consensus binding site: inhibited
[4]
  Amplified c-myc promoter band in STAT3 ChIP: reduced
[5]; MDA-MB-468, 50 μM
  c-myc mRNA expression, % of vehicle treatment: 72%
[5]; MDA-MB-468, 100 μM
  c-myc mRNA expression, % of vehicle treatment: 33%
[6]
  Phosphorylation of STAT3-Y705: inhibited the phosphorylation of STAT3-Y705 in a concentration-dependent manner
[7]
  Inhibition of proliferation of MDA-MB-468 cells: inhibited proliferation
